Results taken from US7759345B2, “Antitumoral derivatives of ET-743” (priority 2001, dated 2010).
Read-outs that look alike come from different tables or passages of the source.

What was measured:
MEL-28 = assay: Inhibition of cell growth by counting cells, MEL-28; format: cell-based, human; details: Homo sapiens, SK-MEL-28, 72 h, read-out: IC50 (molar) MEL-28
Description: (§1) 1°.—Inhibition of Cell Growth by Counting Cells.
(§2) This form of the assay employs 24 well multidishes of 16 mm diameter (Bergeron, 1984; Schroeder, 1981). The tumor cell lines employed are: P-388 (ATCC CCL 46), suspension culture of a lymphoid neoplasm from a DBA/2 mouse; A-549 (ATCC CCL 185), monolayer culture of a human lung carcinoma; HT-29 (ATCC HTB-38), monolayer culture of a human colon carcinoma; MEL-28 (ATCC HTB-72), monolayer culture of a human melanoma and DU-145 (ATCC HTB-81), monolayer culture of a human prostate carcinoma.
(§3) Cells were maintained, in logarithmic phase of growth in Eagle's Minimum Essential Medium, with Earle's Balanced Salts, with non-essential amino acids, with 2.0 mM L-Glutamine, without sodium bicarbonate (EMEM/neaa), supplemented with 10% Fetal Calf Serum (FCS), 10^−2 M. sodium bicarbonate and 0.1 U/l penicillin G+0.1 g/l streptomycin sulfate. For the experiments, cells are harvested from subconfluent cultures using trypsin and resuspended in fresh medium before plating.
(§4) A-549, HT-29, MEL-28 and DU-145 cells were seeded into 16 mm diameter wells at 1×10^4 cells per well in 1 ml aliquots of EMEM 5% FCS containing different concentrations of the sample to be tested. A separate set of cultures without drug was seeded as control of growth, to ensure that cells remained in exponential phase of growth. All determinations are carrying out in duplicate. After three days of incubation at 37° C., 5% CO2 in a 98% humid atmosphere cells were stained with 0.1% crystal violet. An approximately IC50 was determined by comparing the growth in wells with drug to the growth in wells control.
(§5) For quantifying the activity, after the incubation time, cells are trypsinized and counted in a Coulter Counter ZM. All counts (net cells per well), represent the average of duplicate wells. % G, percent of growth relative to cultures without drug. The results of these assays are used to generate dose-response curves from which more precise IC50 values are determined (sample concentration which produces 50% cell growth inhibition).
(§6) Obtained results may predict the usefulness of a certain drug as a potential cancer treatment. For this technique, compounds which show IC50 values smaller than 1 μg/ml are selected to continue with further studies. IC50's data allow to predict that not only could a drug be cystostatic, but also it could have a potential in terms of tumor reduction.

HT-29 = assay: Inhibition of cell growth by counting cells, HT-29; format: cell-based, human; details: Homo sapiens, HT-29, 72 h, read-out: IC50 (molar) HT-29
Outline: (§7)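 Monolayer lines were plated at 1×10^4 cells per well with compound in medium containing 5% FCS. After a 3-day incubation at 37° C, crystal violet staining gave an approximate IC50, and cell counting of duplicate wells gave the dose-response IC50.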

DU-145 = assay: Inhibition of cell growth by counting cells, DU-145; format: cell-based, human; details: Homo sapiens, DU-145, 72 h; three days of incubation; read-out: IC50 (molar) DU-145
Description: as §1, §2, §3, §4, §5, §6

A-549 = assay: Inhibition of cell growth by counting cells, A-549; format: cell-based, human; details: Homo sapiens, A549, 72 h, read-out: IC50 (molar) A-549
Outline: as §7

P-388 = assay: Inhibition of cell growth by counting cells, P-388; format: cell-based, mouse; details: Mus musculus, P388, 72 h, read-out: IC50 (molar) P-388
Description: as §1, §2, §3
P-388 cells were seeded into 16 mm diameter wells at 1×10^4 cells per well in 1 ml aliquots of EMEM 5% FCS containing different concentrations of the sample to be tested. A separate set of cultures without drug was seeded as control of growth, to ensure that cells remained in exponential phase of growth. All determinations are carrying out in duplicate.
as §5, §6

## COc1cc2c(cc1OC(=O)C(F)(F)F)CCN[C@]21CS[C@@H]2c3c(OC(C)=O)c(C)c4c(c3[C@H](COC1=O)N1C2[C@H]2c3c(cc(C)c(OC)c3O)C[C@@H]([C@@H]1C#N)N2C)OCO4 (stereo partly shown) [Compound 3]
MEL-28; three days of incubation
  IC50: 1.15 nM
HT-29; three days of incubation
  IC50: 1.15 nM
DU-145
  IC50: 1.15 nM
A-549; three days of incubation
  IC50: 1.15 nM
P-388; three days of incubation
  IC50: 1.15 nM

## COc1cc2c(cc1OC(=O)OC(C)(C)C)CCN[C@]21CS[C@@H]2c3c(OC(C)=O)c(C)c4c(c3[C@H](COC1=O)N1C2[C@H]2c3c(cc(C)c(OC)c3O)C[C@@H]([C@@H]1C#N)N2C)OCO4 (stereo partly shown) [Compound 4]
MEL-28; three days of incubation
  IC50: 0.115 nM
HT-29; three days of incubation
  IC50: 0.115 nM
DU-145
  IC50: 0.115 nM
A-549; three days of incubation
  IC50: 0.115 nM
P-388; three days of incubation
  IC50: 0.115 nM

## COc1cc2c(cc1OP(=O)(OCc1ccccc1)OCc1ccccc1)CCN[C@]21CS[C@@H]2c3c(OC(C)=O)c(C)c4c(c3[C@H](COC1=O)N1C2[C@H]2c3c(cc(C)c(OC)c3O)C[C@@H]([C@@H]1C#N)N2C)OCO4 (stereo partly shown) [Compound 53]
MEL-28
  IC50: 9.71 nM
HT-29
  IC50: 9.71 nM
A-549
  IC50: 9.71 nM
P-388
  IC50: 4.85 nM

## COc1cc2c(cc1O)CCN(C)[C@]21CS[C@@H]2c3c(OC(C)=O)c(C)c4c(c3[C@H](COC1=O)N1C2[C@H]2c3c(cc(C)c(OC)c3O)C[C@@H]([C@@H]1C#N)N2C)OCO4 (stereo partly shown) [Compound 54]
MEL-28; three days of incubation
  IC50: 0.128 nM
HT-29; three days of incubation
  IC50: 0.128 nM
A-549; three days of incubation
  IC50: 0.128 nM
P-388; three days of incubation
  IC50: 0.128 nM

## CCCN1CCc2cc(O)c(OC)cc2[C@@]12CS[C@@H]1c3c(OC(C)=O)c(C)c4c(c3[C@H](COC2=O)N2C1[C@H]1c3c(cc(C)c(OC)c3O)C[C@@H]([C@@H]2C#N)N1C)OCO4 (stereo partly shown) [Compound 56]
MEL-28; three days of incubation
  IC50: 0.123 nM
HT-29; three days of incubation
  IC50: 0.123 nM
A-549; three days of incubation
  IC50: 0.123 nM
P-388; three days of incubation
  IC50: 0.123 nM

## COc1cc2c(cc1OC(C)=O)CCN[C@]21CS[C@@H]2c3c(OC(C)=O)c(C)c4c(c3[C@H](COC1=O)N1C2[C@H]2c3c(cc(C)c(OC)c3OC(C)=O)C[C@@H]([C@@H]1O)N2C)OCO4 (stereo partly shown) [Compound 80]
MEL-28; three days of incubation
  IC50: 5.92 nM
HT-29; three days of incubation
  IC50: 5.92 nM
A-549; three days of incubation
  IC50: 5.92 nM
P-388; three days of incubation
  IC50: 2.96 nM

## COc1cc2c(cc1O)CCN[C@]21CS[C@@H]2c3c(OC(C)=O)c(C)c4c(c3[C@H](COC1=O)N1C2[C@H]2c3c(cc(C)c(OC)c3OC(C)=O)C[C@@H]([C@@H]1O)N2C)OCO4 (stereo partly shown) [Compound 96]
MEL-28; three days of incubation
  IC50: 1.25 nM
HT-29; three days of incubation
  IC50: 1.25 nM
A-549; three days of incubation
  IC50: 1.25 nM
P-388; three days of incubation
  IC50: 1.25 nM

## COc1cc2c(cc1O)CCN[C@]21CS[C@@H]2c3c(O)c(C)c4c(c3[C@H](COC1=O)N1C2[C@@H]2N[C@@H](Cc3cc(C)c(OC)c(O)c32)[C@@H]1C#N)OCO4 (stereo partly shown) [Compound 184]
MEL-28; three days of incubation
  IC50: 0.699 nM
HT-29; three days of incubation
  IC50: 0.699 nM
A-549; three days of incubation
  IC50: 0.699 nM
P-388; three days of incubation
  IC50: 0.699 nM
